Assay results taken from patent publication US10196436B2, “Inhibitors of the fibroblast growth factor receptor” (BLUEPRINT MEDICINES CORPORATION, priority 2012, dated 2019).

Tests used:
[1] = target: wild type FGFR-1 (Homo sapiens (Human), UniProt P11362); test: FGFR-1 wild type assay at Km (Caliper electrophoretic mobility shift); format: biochemical; conditions: 400 uM ATP, 90 minutes, 25 C; read-out: FGFR1 IC50
Method: (§1) In order to assess the activity of chemical compounds against the relevant kinase of interest, the Caliper LifeSciences electrophoretic mobility shift technology platform is utilized. Fluorescently labeled substrate peptide is incubated in the presence dosed levels of compounds, a set concentration of kinase and of ATP, so that a reflective proportion of the peptide is phosphorylated. At the end of the reaction, the mix of phosphorylated (product) and non-phosphorylated (substrate) peptides are passed through the microfluidic system of the Caliper LabChip® EZ Reader II, under an applied potential difference. The presence of the phosphate group on the product peptide provides a difference in mass and charge between the product peptide and the substrate peptide, resulting in a separation of the substrate and product pools in the sample. As the pools pass the LEDS within the instrument, these pools are detected and resolved as separate peaks. The ratio between these peaks therefore reflects the activity of the chemical matter at that concentration in that well, under those conditions.
(§2) The reaction was stopped by the addition of 70 ul of Stop buffer (100 mM HEPES pH 7.5, 0.015% Brij 35, 35 mM EDTA and 0.2% of Coating Reagent 3 (Caliper Lifesciences)). The plate was then read on a Caliper EZReader 2 (protocol settings: −1.9 psi, upstream voltage −700, downstream voltage −3000, post sample sip 35 s).

[2] = target: wild type FGFR-4 (Homo sapiens (Human), UniProt P22455); test: FGFR-4 wild type assay at Km (Caliper electrophoretic mobility shift); format: biochemical; conditions: for IC50: 400 uM ATP, 90 minutes, 25 C, read-out: FGFR4 IC50; for Ratio FGFR1/FGFR4: [IC50 for FGFR1]/[IC50 for FGFR4]
Sequence of wild type FGFR-4 (P22455 22-802): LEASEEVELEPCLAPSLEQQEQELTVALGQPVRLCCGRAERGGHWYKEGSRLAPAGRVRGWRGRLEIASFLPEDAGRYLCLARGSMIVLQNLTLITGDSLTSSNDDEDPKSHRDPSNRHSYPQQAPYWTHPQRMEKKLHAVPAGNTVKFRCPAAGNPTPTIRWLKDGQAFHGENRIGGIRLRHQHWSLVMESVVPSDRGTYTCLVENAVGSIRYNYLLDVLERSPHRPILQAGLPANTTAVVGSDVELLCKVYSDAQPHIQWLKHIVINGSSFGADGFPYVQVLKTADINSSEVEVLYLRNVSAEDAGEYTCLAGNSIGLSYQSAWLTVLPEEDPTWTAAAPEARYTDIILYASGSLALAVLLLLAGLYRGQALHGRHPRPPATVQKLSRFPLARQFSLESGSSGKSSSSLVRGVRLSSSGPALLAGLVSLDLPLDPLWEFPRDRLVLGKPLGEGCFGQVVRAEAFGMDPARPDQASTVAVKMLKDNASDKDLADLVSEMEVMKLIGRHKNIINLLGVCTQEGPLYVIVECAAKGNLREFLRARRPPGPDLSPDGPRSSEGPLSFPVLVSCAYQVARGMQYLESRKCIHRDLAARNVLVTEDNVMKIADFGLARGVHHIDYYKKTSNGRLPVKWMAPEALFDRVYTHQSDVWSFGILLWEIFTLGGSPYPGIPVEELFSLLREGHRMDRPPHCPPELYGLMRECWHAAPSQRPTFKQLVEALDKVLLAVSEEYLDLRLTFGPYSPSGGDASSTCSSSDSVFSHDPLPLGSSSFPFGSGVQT
Method: as §1
as §2, with “LabChip® EZ Reader II” for “EZReader 2”

Sequence of wild type FGFR-1 (P11362 22-822): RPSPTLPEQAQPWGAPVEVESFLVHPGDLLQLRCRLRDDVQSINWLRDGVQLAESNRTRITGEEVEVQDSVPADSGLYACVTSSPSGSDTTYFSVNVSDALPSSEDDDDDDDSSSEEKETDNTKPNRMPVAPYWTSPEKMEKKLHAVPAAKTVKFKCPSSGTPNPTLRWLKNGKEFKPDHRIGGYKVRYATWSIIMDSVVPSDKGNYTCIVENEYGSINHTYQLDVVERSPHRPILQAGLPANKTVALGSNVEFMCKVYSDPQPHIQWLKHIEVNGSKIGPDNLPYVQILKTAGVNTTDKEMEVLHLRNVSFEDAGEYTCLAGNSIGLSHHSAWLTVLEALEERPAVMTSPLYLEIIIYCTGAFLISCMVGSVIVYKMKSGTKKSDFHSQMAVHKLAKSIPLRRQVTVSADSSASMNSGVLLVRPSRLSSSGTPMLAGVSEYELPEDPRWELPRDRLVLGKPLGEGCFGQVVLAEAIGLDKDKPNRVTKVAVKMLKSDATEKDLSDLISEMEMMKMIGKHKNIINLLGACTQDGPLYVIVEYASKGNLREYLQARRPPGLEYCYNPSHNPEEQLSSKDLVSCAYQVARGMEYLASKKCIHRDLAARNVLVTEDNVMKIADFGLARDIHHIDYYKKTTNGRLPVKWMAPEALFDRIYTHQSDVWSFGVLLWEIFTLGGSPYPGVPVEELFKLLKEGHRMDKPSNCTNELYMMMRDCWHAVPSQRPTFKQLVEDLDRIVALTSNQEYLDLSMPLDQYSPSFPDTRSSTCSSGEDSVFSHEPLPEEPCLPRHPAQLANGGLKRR

Row | IC50 [1] [nM] | IC50 [2] [nM] | Ratio FGFR1/FGFR4 [2] | SMILES
1 | > 1000 | 100 to 1000 | C (the ratio is ≥100 and <200) | C=CC(=O)N(C)c1ncc2cc(-c3cc(OC)cc(OC)c3)ccc2n1 [COMPOUND 1]
2 | > 1000 | – | D (the ratio is ≥50 and <100) | C=CC(=O)N(C)c1ncc2cc(-c3c(Cl)cccc3Cl)ccc2n1 [COMPOUND 2]
3 | > 1000 | – | A (the ratio is >500) | C=CC(=O)N(C)c1ncc2c(n1)N(C)C(=O)N(c1cc(OC)cc(OC)c1)C2 [COMPOUND 5]
4 | > 1000 | – | – | C=CC(=O)Nc1cccc(C)c1Nc1ncc(C#Cc2cc(OC)cc(OC)c2)cn1 [COMPOUND 6, N-(2-((5-((3,5-dimethoxyphenyl)ethynyl)pyrimidin-2-yl)amino)-3-methylphenyl) acrylamide]
5 | > 1000 | < 10 | A (the ratio is >500) | C=CC(=O)N(C)c1ncc2cc(-c3c(Cl)c(OC)cc(OC)c3Cl)ccc2n1 [COMPOUND 7]
6 | – | < 10 | E (the ratio is >10 and <50) | C=CC(=O)N(C)c1ncc2cc(-c3c(Cl)c(OC)cc(OC)c3Cl)cnc2n1 [COMPOUND 8]
7 | > 1000 | – | D (the ratio is ≥50 and <100) | C=CC(=O)Nc1cccc(C)c1Nc1ncc2cc(-c3cc(C(N)=O)ccc3F)ccc2n1 [COMPOUND 9]
8 | > 1000 | > 1000 | E (the ratio is >10 and <50) | C=CC(=O)Nc1cccc(C)c1Nc1ncc2cc(-c3cc(OC)cc(OC)c3)cnc2n1 [COMPOUND 10, N-(2-((6-(3,5-dimethoxyphenyl)pyrido[2,3-d]pyrimidin-2-yl)amino)-3-methylphenyl)acrylamide]
9 | > 1000 | – | – | C=CC(=O)Nc1ccccc1Nc1nccc(N2CCCC(NS(=O)(=O)CCC)C2)n1 (centres unmarked) [COMPOUND 11, N-(2-((4-(3-(propylsulfonamido)piperidin-1-yl)pyrimidin-2-yl)amino)phenyl)acrylamide]
10 | – | < 10 | D (the ratio is ≥50 and <100) | C=CC(=O)N(C)c1ncc2cc(-c3c(Cl)c(OC)cc(OC)c3Cl)c(=O)n(C)c2n1 [COMPOUND 12]
11 | > 1000 | – | D (the ratio is ≥50 and <100) | C=CC(=O)Nc1cccc(C)c1Nc1ncc2cc(-c3c(Cl)cccc3Cl)ccc2n1 [COMPOUND 13]
12 | > 1000 | – | B (the ratio is ≥200 and <500) | C=CC(=O)Nc1ccccc1Nc1cc2c(cn1)cc(-c1cc(OC)cc(OC)c1)c(=O)n2C [COMPOUND 15]
13 | > 1000 | – | – | C=CC(=O)Nc1ccccc1Nc1ncc2cc(-c3cc(OC)cc(OC)c3)c(=O)n(C)c2n1 [COMPOUND 16]
14 | > 1000 | – | E (the ratio is >10 and <50) | C=CC(=O)Nc1cccc(C)c1Nc1ncc2cc(-c3c(Cl)ccc(OC)c3F)ccc2n1 [COMPOUND 17A]
15 | > 1000 | – | B (the ratio is ≥200 and <500) | C=CC(=O)Nc1cccc(Cl)c1Nc1ncc2cc(-c3cc(C(N)=O)ccc3C)ccc2n1 [COMPOUND 17]
16 | > 1000 | – | – | C=CC(=O)Nc1cccc(C)c1Nc1ncc2cc(-c3cc(OC)cc(OC)c3)c(=O)n(C)c2n1 [COMPOUND 19]
17 | > 1000 | – | – | C=CC(=O)Nc1ccccc1-c1ccn2c(-c3cccc(NC(=O)NCC(F)(F)F)c3)cnc2c1 [COMPOUND 21, N-(2-(3-(3-(3-(2,2,2-trifluoroethyl)ureido)phenyl)imidazo[1,2-a]pyridin-7-yl)phenyl)acrylamide]
18 | > 1000 | – | B (the ratio is ≥200 and <500) | C=CC(=O)Nc1cccc(C)c1Nc1ncc2cc(-c3c(Cl)cccc3Cl)c(=O)n(C)c2n1 [COMPOUND 22]
19 | > 1000 | 100 to 1000 | A (the ratio is >500) | C=CC(=O)Nc1ccccc1Nc1ncc(C)c(N2CCN(C(=O)Nc3ccc(C#N)cc3)CC2)n1 [COMPOUND 23]
20 | > 1000 | – | – | C=CC(=O)Nc1cccc(C)c1Nc1ncc(C#Cc2c(Cl)c(OC)cc(OC)c2Cl)cn1 [COMPOUND 24, N-(2-((5-((2,6-dichloro-3,5-dimethoxyphenyl)ethynyl)pyrimidin-2-yl)amino)-3-methylphenyl)acrylamide]
21 | > 1000 | – | D (the ratio is ≥50 and <100) | C=CC(=O)Nc1cccc(C)c1Oc1ncc2cc(-c3c(Cl)c(OC)cc(OC)c3Cl)ccc2n1 [COMPOUND 25A]
22 | > 1000 | – | – | C=CC(=O)Nc1cc(C)cc(C)c1Nc1ncc2cc(-c3c(Cl)c(OC)cc(OC)c3Cl)ccc2n1 [COMPOUND 28]
23 | > 1000 | < 10 | C (the ratio is ≥100 and <200) | C=CC(=O)Nc1cc(F)cc(C)c1Nc1ncc2cc(-c3c(Cl)c(OC)cc(OC)c3Cl)ccc2n1 [COMPOUND 32]
24 | > 1000 | – | B (the ratio is ≥200 and <500) | C=CC(=O)Nc1cc(F)cc(F)c1Nc1ncc2cc(-c3c(Cl)c(OC)cc(OC)c3Cl)ccc2n1 [COMPOUND 36]
25 | – | < 10 | C (the ratio is ≥100 and <200) | C=CC(=O)Nc1ccc(F)c(F)c1Nc1ncc2cc(-c3c(Cl)c(OC)cc(OC)c3Cl)ccc2n1 [COMPOUND 37]
26 | – | < 10 | B (the ratio is ≥200 and <500) | C=CC(=O)Nc1cccc(F)c1Nc1ncc2cc(-c3c(Cl)c(OC)cc(OC)c3Cl)cc(OC)c2n1 [COMPOUND 47]
27 | – | < 10 | E (the ratio is >10 and <50) | C=CC(=O)Nc1cccc(C)c1Nc1ncc2c(n1)N(C)C(=O)N(c1c(Cl)c(OC)cc(OC)c1Cl)C2 [COMPOUND 48, N-(2-((6-(2,6-dichloro-3,5-dimethoxyphenyl)-8-methyl-7-oxo-5,6,7,8-tetrahydropyrimido[4,5-d]pyrimidin-2-yl)amino)-3-methylphenyl)acrylamide]
28 | – | – | E (the ratio is >10 and <50) | C=CS(=O)(=O)Nc1cccc(C)c1Nc1ncc2cc(-c3c(Cl)c(OC)cc(OC)c3Cl)ccc2n1 [COMPOUND 49A]
29 | > 1000 | – | – | C=CC(=O)Nc1ccccc1Nc1ncc(Cl)c(N2CCN(C(=O)Nc3cccc(C(F)(F)F)c3)CC2)n1 [COMPOUND 50, 4-(2-((2-acrylamidophenyl)amino)-5-chloropyrimidin-4-yl)-N-(3-(trifluoromethyl)phenyl)piperazine-1-carboxamide]
30 | > 1000 | – | – | C=CC(=O)Nc1cc(C(=O)NC2CCN(C)CC2)ccc1Nc1ncc(C)c(N2CCN(C(=O)Nc3ccc(C#N)cc3)CC2)n1 [COMPOUND 54, 4-(2-((2-acrylamido-4-((1-methylpiperidin-4-yl)carbamoyl)phenyl)amino)-5-methylpyrimidin-4-yl)-N-(4-cyanophenyl)piperazine-1-carboxamide]

Row | SMILES | IC50 [1] [nM] | IC50 [2] [nM] | Ratio FGFR1/FGFR4 [2]
31 | C=CC(=O)N(C)c1ncc2c(n1)N(C)C(=O)N(c1c(Cl)c(OC)cc(OC)c1Cl)C2 [COMPOUND 14] | – | – | F (the ratio of [IC50 for FGFR1]/[IC50 for FGFR4] is less than 10)
32 | C=CC(=O)Nc1ccccc1Nc1ncc2cc(-c3c(Cl)c(OC)cc(OC)c3Cl)c(=O)n(C)c2c1C [COMPOUND 40, N-(2-((3-(2,6-dichloro-3,5-dimethoxyphenyl)-1,8-dimethyl-2-oxo-1,2-dihydro-1,6-naphthyridin-7-yl)amino)phenyl)acrylamide] | > 1000 | – | –
33 | C=CC(=O)Nc1cccc(C)c1Nc1ncc2cc(-c3c(Cl)c(OC)cc(OC)c3Cl)c(OC)cc2n1 [COMPOUND 42, N-(2-((6-(2,6-dichloro-3,5-dimethoxyphenyl)-7-methoxyquinazolin-2-yl)amino)-3-methylphenyl)acrylamide] | – | < 10 | F (the ratio of [IC50 for FGFR1]/[IC50 for FGFR4] is less than 10)
